Experimental data as given in patent US20250099420A1, “SMALL MOLECULE MODULATORS OF GPR139 COMPLEX” (University of Florida Research Foundation, Incorporated, priority 2022, published 2025).
Where two headings read alike, the source gives them in different places.

Experiments:
parental HEK cells = assay: HEK parental Agonist Counterscreen Assay (non-transfected cells); type: cell-based; details: for Averaged Max % Response (±St. Dev.): activity relative to known control
Excerpt: The high control for the agonist counterscreen was Forskolin not acetylcholine.

GPR139 = target: T1, GPR139 (Homo sapiens, UniProt Q6DWJ6); assay: GPR139 Agonist titration / agonist counterscreen assay (calcium detection, HEK-GPR139 cells); type: cell-based; set-up: expressed in transfected cells; host or cells: HEK Aequorin cells, Maxcyte transient transfection; details: GPR139 Agonist Activity; for Averaged Max % Response (±St. Dev.): activity relative to known control; for EC50: read-out: EC50
T1 sequence (Q6DWJ6 1-353): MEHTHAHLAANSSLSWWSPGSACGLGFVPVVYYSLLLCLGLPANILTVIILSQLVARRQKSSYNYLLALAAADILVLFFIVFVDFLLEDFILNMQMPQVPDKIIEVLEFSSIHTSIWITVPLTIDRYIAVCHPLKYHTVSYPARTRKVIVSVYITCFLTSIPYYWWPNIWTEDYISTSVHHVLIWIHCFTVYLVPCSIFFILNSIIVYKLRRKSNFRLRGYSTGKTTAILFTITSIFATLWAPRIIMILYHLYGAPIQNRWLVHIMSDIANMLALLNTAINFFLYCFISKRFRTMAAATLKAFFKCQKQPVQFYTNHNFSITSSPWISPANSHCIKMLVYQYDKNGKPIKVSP
Method: GPR activity was assessed using a calcium detection assay. […] Negative control samples were treated with DMSO. […] Intracellular calcium was measured using Calcium 5.

[1] = HEK Agonist Activity section of Table 4 (parental HEK counterscreen)
[2] = values printed in E-notation without unit
[3] = Homo sapiens, HEK293, HEK Agonist Activity section of Table 4 (parental HEK counterscreen)
[4] = HEK Agonist Activity, parental non-transfected HEK cells
[5] = Homo sapiens, HEK293, HEK Agonist Activity, parental non-transfected HEK cells

SMILES	Lipophilic Efficiency (logD) (parental HEK cells; HEK Agonist Activity section)	Lipophilic Efficiency (logP) (parental HEK cells; HEK Agonist Activity section)	Averaged Max % Response (±St. Dev.) (parental HEK cells; HEK Agonist Activity section)	Averaged Max % Response (±St. Dev.) (GPR139)	Lipophilic Efficiency (logD) (GPR139; based on logD)	Lipophilic Efficiency (logP) (GPR139; based on logP)	Efficiency Ligand (GPR139; ligand efficiency)	EC50 (GPR139; [2])	Hill Slope (GPR139; fitted dose-response curve)	EC50 (parental HEK cells; [3])	further results
Cc1ccc(SCC(=O)Nc2nnc(-c3ccc(Cl)cc3)o2)cc1 [SR-01000913573]	0.84	0.84	8.58 ± 4.44%	186.79 ± 37.86%	2.75	2.75	0.39	> 174 nM			EC50 (parental HEK cells; [1]): > 14100 nM
O=c1nc(SCc2ccccc2F)c2c([nH]1)CCC2 [SR-01000914970]	2.03	2.02	−5.66 ± 4.95%	101.00 ± 9.27%	3.98	3.97	0.50	158 nM	0.53		EC50 (parental HEK cells; [1]): > 14100 nM
COc1ccccc1-c1nnc(NC(=O)Cc2ccc(C)cc2C)o1 [SR-01000915644]	1.25	1.25	−2.94 ± 0.56%	98.09 ± 3.30%	3.69	3.69	0.41	51 nM	0.31	> 14100 nM	
Cc1cccc(COc2coc(COc3nccn3C)cc2=O)c1 [SR-01000916033]	2.68	2.68	25.93 ± 6.51%	104.22 ± 8.56%	5.04	5.04	0.42	61.9 nM	0.34	> 14100 nM	
COc1ccc(CCC(=O)Nc2ccc(OC)c(N3CCCC3=O)c2)cc1 [SR-01000916271]	2.35	2.35	29.38 ± 9.84%	111.55 ± 2.57%	4.82	4.82	0.38	47.9 nM	0.34	> 14100 nM	
O=C1CCCCN1c1cccc(NS(=O)(=O)c2cc(Cl)ccc2Cl)c1 [SR-01000916375]	1.86	1.41	−1.52 ± 2.20%	91.29 ± 4.98%						> 14100 nM	Efficiency Ligand (GPR139): 0.36; Hill Slope (GPR139): 0.68; Lipophilic Efficiency (logD) (GPR139): 3.43; Lipophilic Efficiency (logP) (GPR139): 2.99; EC50 (GPR139; HEK-GPR139 cells): 373 nM
COCCn1c(C)c(C(=O)NC(C)CCc2ccccc2)c2nc3ccccc3nc21 (centres unmarked) [SR-01000918134]	0.66	0.66	−11.92 ± 3.45%	116.95 ± 4.02%	3.05	3.05	0.33			> 14100 nM	
CCn1c(=O)c([N+](=O)[O-])c(NCCc2ccc(OC)cc2)c2ccccc21 [SR-01000918303]	2.37	2.37	−6.52 ± 9.86%	84.68 ± 8.82%	4.29	4.29	0.35	166 nM	0.73		EC50 (parental HEK cells; [1]): > 14100 nM
COc1ccc(C2(C)NC(=O)N(CC(=O)Nc3cc(C)ccc3C)C2=O)cc1 (centres unmarked) [SR-01000918716]				111.04 ± 7.77%	5.74	5.74	0.43				Hill Slope (parental HEK cells; HEK Agonist Activity): 0.85; Lipophilic Efficiency (logD) (parental HEK cells; HEK Agonist Activity): 2.34; Lipophilic Efficiency (logP) (parental HEK cells; HEK Agonist Activity): 2.34; Averaged Max % Response (±St. Dev.) (parental HEK cells; HEK Agonist Activity): 92.04 ± 16.23%; EC50 (parental HEK cells; [4]): 5500 nM
COc1ccc(C2(C)NC(=O)N(CC(=O)NC3CCCC3)C2=O)cc1 (centres unmarked) [SR-01000918718]				106.93 ± 8.46%	6.47	6.47	0.43	19.9 nM	0.93		Lipophilic Efficiency (logD) (parental HEK cells; HEK Agonist Activity): 3.62; Lipophilic Efficiency (logP) (parental HEK cells; HEK Agonist Activity): 3.62; Averaged Max % Response (±St. Dev.) (parental HEK cells; HEK Agonist Activity): 16.28 ± 3.44%; EC50 (parental HEK cells; [4]): > 14100 nM
C=C1CC(C)(c2ccc(OC)cc2)C(=C)C1CC(=O)CC1CCCCC1 (centres unmarked) [SR-01000918719]	3.17	3.17	19.77 ± 4.52%	94.25 ± 9.34%	5.17	5.17	0.37		0.65	> 14100 nM	
COc1ccc(C2(C)NC(=O)N(CC(=O)NCc3ccc(F)cc3)C2=O)cc1 (centres unmarked) [SR-01000918720]	3.10	3.10	24.77 ± 3.77%	107.14 ± 13.14%	5.56	5.56	0.37	48.9 nM	0.42	> 14100 nM	
COc1ccc(C2(C)NC(=O)C(CC(=O)NCCc3ccccc3)C2=O)cc1 (centres unmarked) [SR-01000918721]				107.86 ± 14.78%	5.70	5.70	0.38	25.6 nM	0.48		Lipophilic Efficiency (logD) (parental HEK cells; HEK Agonist Activity): 2.96; Lipophilic Efficiency (logP) (parental HEK cells; HEK Agonist Activity): 2.96; Averaged Max % Response (±St. Dev.) (parental HEK cells; HEK Agonist Activity): 9.27 ± 15.15%; EC50 (parental HEK cells; [5]): > 14100 nM
CCOc1nn(CC)cc1-c1nnc(SCc2ccc(C(=O)OC)cc2)n1C [SR-01000919746]				101.90 ± 10.65%	3.89	3.89	0.38	28.1 nM	0.63		Lipophilic Efficiency (logD) (parental HEK cells; HEK Agonist Activity): 1.19; Lipophilic Efficiency (logP) (parental HEK cells; HEK Agonist Activity): 1.19; Averaged Max % Response (±St. Dev.) (parental HEK cells; HEK Agonist Activity): −13.54 ± 17.63%; EC50 (parental HEK cells; [5]): > 14100 nM
Cc1cc(-c2nnc(NC(=O)CCc3ccccc3)o2)n(C)n1 [SR-01000920602]	3.19	3.19	−28.12 ± 1.91%	90.23 ± 7.66%						> 14100 nM	Efficiency Ligand (GPR139): 0.39; Hill Slope (GPR139): 0.91; Lipophilic Efficiency (logD) (GPR139): 4.83; Lipophilic Efficiency (logP) (GPR139): 4.83; EC50 (GPR139; HEK-GPR139 cells): 325 nM
O=C(CCc1ccccc1)Nc1nnc(Cc2cccs2)o1 [SR-01000920660]	1.83	1.83	−18.29 ± 7.41%	83.52 ± 6.71%						> 14100 nM	Efficiency Ligand (GPR139): 0.41; Hill Slope (GPR139): 1.17; Lipophilic Efficiency (logD) (GPR139): 3.39; Lipophilic Efficiency (logP) (GPR139): 3.39; EC50 (GPR139; HEK-GPR139 cells): 387 nM
Cn1c(CCc2ccc(F)cc2F)nnc1C1=C(O)N=C2CC=CC21 (centres unmarked) [SR-01000922914]	0.70	0.70	−4.64 ± 6.81%	76.15 ± 6.21%						> 14100 nM	Efficiency Ligand (GPR139): 0.36; Hill Slope (GPR139): 0.68; Lipophilic Efficiency (logD) (GPR139): 2.32; Lipophilic Efficiency (logP) (GPR139): 2.32; EC50 (GPR139; HEK-GPR139 cells): 335 nM
COc1ccc(CCNC(=O)Nc2ccc3c(c2)CCCN3C(=O)C2CC2)cc1 [SR-01000923125]				81.24 ± 9.74%	4.30	4.30	0.37	23.7 nM	2.01		Lipophilic Efficiency (logD) (parental HEK cells; HEK Agonist Activity): 1.53; Lipophilic Efficiency (logP) (parental HEK cells; HEK Agonist Activity): 1.53; Averaged Max % Response (±St. Dev.) (parental HEK cells; HEK Agonist Activity): 32.19 ± 4.93%; EC50 (parental HEK cells; [5]): > 14100 nM
CCCN1C(=O)CCc2cc(NC(=O)NCCc3ccc(OC)cc3)ccc21 [SR-01000923206]	1.61	1.61	−32.47 ± 4.02%	74.00 ± 9.00%							EC50 (parental HEK cells; [1]): > 14100 nM; Efficiency Ligand (GPR139): 0.31; Hill Slope (GPR139): 1.67; Lipophilic Efficiency (logD) (GPR139): 2.98; Lipophilic Efficiency (logP) (GPR139): 2.98; EC50 (GPR139; HEK-GPR139 cells): 604 nM
